Measurements: US20250388605A1, “HETEROBIFUNCTIONAL COMPOUNDS AND METHODS OF TREATING DISEASE” (Halda Therapeutics OpCo, Inc., priority 2022, published 2025)
pIC50, pKi: −log10 of the molar value.

Columns and labels:
androgen receptor = target: T1, androgen receptor (Homo sapiens, UniProt P10275); test: Assay for binding affinity to androgen receptor ([3H]methyltrienolone radioligand competition, cell cytosol); conditions: binding to the androgen receptor, 1 nM [3H]methyltrienolone, 24 hr at 4° C.
T1 construct: host or cells: unnamed cells, cytosolic fraction
T1 sequence (P10275 1-920): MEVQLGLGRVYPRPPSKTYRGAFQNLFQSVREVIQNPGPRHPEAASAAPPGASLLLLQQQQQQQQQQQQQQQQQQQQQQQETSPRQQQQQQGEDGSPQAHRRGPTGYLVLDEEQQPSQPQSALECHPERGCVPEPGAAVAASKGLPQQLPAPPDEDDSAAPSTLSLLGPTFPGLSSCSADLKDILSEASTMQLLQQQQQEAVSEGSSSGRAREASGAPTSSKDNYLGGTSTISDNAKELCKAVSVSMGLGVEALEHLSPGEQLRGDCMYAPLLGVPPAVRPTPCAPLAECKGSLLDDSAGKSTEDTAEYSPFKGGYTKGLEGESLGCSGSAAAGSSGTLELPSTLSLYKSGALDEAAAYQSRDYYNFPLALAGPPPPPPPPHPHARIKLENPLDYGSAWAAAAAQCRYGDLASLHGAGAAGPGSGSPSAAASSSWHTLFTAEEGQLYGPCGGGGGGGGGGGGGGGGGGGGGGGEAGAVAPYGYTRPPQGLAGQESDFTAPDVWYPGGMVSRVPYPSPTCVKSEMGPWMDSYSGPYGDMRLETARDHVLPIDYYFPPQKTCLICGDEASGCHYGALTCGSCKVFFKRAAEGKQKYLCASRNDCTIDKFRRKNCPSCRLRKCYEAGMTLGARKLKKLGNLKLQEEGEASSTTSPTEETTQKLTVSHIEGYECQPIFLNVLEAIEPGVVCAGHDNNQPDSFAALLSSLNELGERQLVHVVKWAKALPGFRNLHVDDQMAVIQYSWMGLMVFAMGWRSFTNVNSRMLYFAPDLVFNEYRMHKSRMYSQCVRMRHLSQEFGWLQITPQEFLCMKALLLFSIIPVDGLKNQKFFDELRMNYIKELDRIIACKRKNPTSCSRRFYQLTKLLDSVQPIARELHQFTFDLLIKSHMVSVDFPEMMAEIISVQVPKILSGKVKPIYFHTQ
Description: Fractions of cell cytosol ([…]) were incubated for 24 hr at 4° C. with 1 nM [^3H]methyltrienolone in the absence or presence of the test compound in a buffer containing 25 mM Hepes-Tris (pH 7.4), 1 mM EDTA, 10 mM Na2MoO4, 2 mM DTT, 5 μM triamcinolone acetonide, and 10% glycerol. Nonspecific binding was determined in the presence of […] testosterone. Following incubation, the samples were filtered rapidly under vacuum through glass fiber filters (GF/B, Packard) presoaked with 0.3% PEI and rinsed several times with ice-cold 50 mM Tris-HCl using a 96-sample cell harvester (Unifilter, Packard). The filters were dried then counted for radioactivity in a scintillation counter (Topcount, Packard) using a scintillation cocktail (Microscint 0, Packard). The results are expressed as a percent inhibition of the control radioligand specific binding. The standard reference compound is testosterone, which is tested in each experiment at several concentrations to obtain a competition curve from which its IC50 is calculated.

[1] = system: T-Rex 293 cell line SC cells lacking increased expression of progesterone receptor isoform B protein; test: Cellular growth inhibition assay, T-Rex 293 SC cells not exposed to doxycycline (no increased progesterone receptor isoform B expression), CellTiter-Glo; type: cell-based; conditions: T-Rex 293 SC cells without doxycycline (no increased PR isoform B), 72 hours
[2] = target: T2, progesterone receptor ligand binding domain (GST-tagged PR LBD) (Homo sapiens, UniProt P06401); test: FP Assay for Binding Affinity to Progesterone Receptor (PolarScreen Progesterone Receptor Competitor Assay Kit); conditions: fluorescence polarization, Fluormone tracer, 2 hours at room temperature
T2 construct: purchased Life Technologies A15905 or a15906
T2 sequence (P06401 679-913 limits assumed): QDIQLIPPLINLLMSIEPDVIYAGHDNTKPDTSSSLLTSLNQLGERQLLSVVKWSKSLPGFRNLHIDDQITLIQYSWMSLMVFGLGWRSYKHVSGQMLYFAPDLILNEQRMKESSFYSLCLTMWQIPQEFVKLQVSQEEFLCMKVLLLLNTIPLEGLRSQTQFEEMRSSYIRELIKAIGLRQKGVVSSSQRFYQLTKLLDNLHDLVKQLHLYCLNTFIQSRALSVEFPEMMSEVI
In short: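 Fluorescence polarization competition: GST-tagged human PR LBD, Fluormone tracer and compound incubated 2 h at room temperature in the dark. mP plotted against compound concentration; IC50 from four-parameter non-linear fit.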

In the case of CCS(=O)(=O)Nc1ccc(Oc2cccc(COC3CCN(c4ncc(C(=O)N[C@H]5C(C)(C)[C@H](Oc6ccc(C#N)c(Cl)c6)C5(C)C)cn4)CC3)c2)c(-c2cn(C)c(=O)c3[nH]ccc23)c1 [Compound I-18, N-((1r, 3r)-3-(3-chloro-4-cyanophenoxy)-2,2,4,4-tetramethylcyclobutyl)-2-(4-((3-(4-(ethylsulfonamido)-2-(6-methyl-7-oxo-6,7-dihydro-1H-pyrrolo[2,3-c]pyridin-4-yl)phenoxy)benzyl)oxy)piperidin-1-yl)pyrimidine-5-carboxamide], the pKi (androgen receptor) was > 7.30 and the GI50 [1] was < 500 nM.
With Cn1cc(-c2cc(C(C)(C)O)ccc2Oc2ccc(N3CC(CC4CCN(c5ncc(C(=O)N[C@H]6C(C)(C)[C@H](Oc7ccc(C#N)c(Cl)c7)C6(C)C)cn5)CC4)C3)cc2)c2cc[nH]c2c1=O [Compound I-232] the pKi (androgen receptor) was > 7.30, the GI50 [1] was 500 to 1500 nM and the pIC50 [2] was 5.60 to 6.30.
In the case of CCS(=O)(=O)c1ccc(OC(CCCCN2CCN(c3ncc(C(=O)NC4C(C)(C)C(Oc5ccc(C#N)c(Cl)c5)C4(C)C)cn3)CC2)C2CC2)c(-c2cn(C)c(=O)c3[nH]ccc23)c1 (centres unmarked) [Compound I-223, N-[3-(3-chloro-4-cyano-phenoxy)-2,2,4,4-tetramethyl-cyclobutyl]-2-[4-[5-cyclopropyl-5-[4-ethylsulfonyl-2-(6-methyl-7-oxo-1H-pyrrolo[2,3-c]pyridin-4-yl)phenoxy]pentyl]piperazin-1-yl]pyrimidine-5-carboxamide], the pKi (androgen receptor) was > 7.30 and the pIC50 [2] was 6.30 to 7.30.
In the case of CCS(=O)(=O)Nc1ccc(Oc2cccc(OCCN(C)c3ncc(C(=O)N[C@H]4C(C)(C)[C@H](Oc5ccc(C#N)c(Cl)c5)C4(C)C)cn3)c2)c(-c2cn(C)c(=O)c3[nH]ccc23)c1 [Compound I-1, N-((1r, 3r)-3-(3-chloro-4-cyanophenoxy)-2,2,4,4-tetramethylcyclobutyl)-2-((2-(3-(4-(ethylsulfonamido)-2-(6-methyl-7-oxo-6,7-dihydro-1H-pyrrolo[2,3-c]pyridin-4-yl)phenoxy)phenoxy)ethyl)(methyl)amino)pyrimidine-5-carboxamide], the pKi (androgen receptor) was > 7.30 and the GI50 [1] was < 500 nM.
In the case of CCS(=O)(=O)Nc1ccc(Oc2ccc(OCC3CCN(c4ncc(C(=O)N[C@H]5C(C)(C)[C@H](Oc6ccc(C#N)c(Cl)c6)C5(C)C)cn4)CC3)cc2)c(-c2cn(C)c(=O)c3[nH]ccc23)c1 [Compound I-138], the pKi (androgen receptor) was > 7.30, the GI50 [1] was < 500 nM and the pIC50 [2] was < 5.60.
For CCS(=O)(=O)Nc1ccc(Oc2cccc(OCCOC3CCN(c4cnc(C(=O)N[C@H]5C(C)(C)[C@H](Oc6ccc(C#N)c(Cl)c6)C5(C)C)cn4)CC3)c2)c(-c2cn(C)c(=O)c3[nH]ccc23)c1 [Compound I-71, N-((1r, 3r)-3-(3-chloro-4-cyanophenoxy)-2,2,4,4-tetramethylcyclobutyl)-5-(4-(2-(3-(4-(ethylsulfonamido)-2-(6-methyl-7-oxo-6,7-dihydro-1H-pyrrolo[2,3-c]pyridin-4-yl)phenoxy)phenoxy)ethoxy)piperidin-1-yl)pyrazine-2-carboxamide], the pKi (androgen receptor) was 5.60 to 6.30 and the GI50 [1] was < 500 nM.
In the case of Cn1cc(-c2cc(C(C)(C)O)ccc2Oc2cccc(N3CC4(CN(c5ncc(C(=O)N[C@H]6C(C)(C)[C@H](Oc7ccc(C#N)c(Cl)c7)C6(C)C)cn5)CCO4)C3)c2F)c2cc[nH]c2c1=O [Compound I-216], the pKi (androgen receptor) was > 7.30 and the pIC50 [2] was 6.30 to 7.30.
In the case of Cn1cc(-c2cc(C(C)(C)O)ccc2Oc2ccc(N3CC4(C3)CN(c3ncc(C(=O)N[C@H]5C(C)(C)[C@H](Oc6ccc(C#N)c(Cl)c6)C5(C)C)cn3)CCO4)cc2)c2cc[nH]c2c1=O [Compound I-212], the pKi (androgen receptor) was > 7.30 and the pIC50 [2] was 6.30 to 7.30.
Cn1cc(-c2cc(C(C)(C)O)ccc2Oc2ccc(CCC3CCN(c4ncc(C(=O)N[C@H]5C(C)(C)[C@H](Oc6ccc(C#N)c(Cl)c6)C5(C)C)cn4)CC3)cc2)c2cc[nH]c2c1=O [Compound I-203] was tested, and the pKi (androgen receptor) was 6.30 to 7.30, the GI50 [1] was > 3000 nM and the pIC50 [2] was < 5.60.
In the case of Cn1cc(-c2cc(C(C)(C)O)ccc2Oc2cccc(OCCN3CCN(c4ncc(C(=O)N[C@H]5C(C)(C)[C@H](Oc6ccc(C#N)c(Cl)c6)C5(C)C)cn4)CC3)c2F)c2cc[nH]c2c1=O [Compound I-99], the pKi (androgen receptor) was > 7.30 and the pIC50 [2] was 6.30 to 7.30.
For CCS(=O)(=O)c1ccc(Oc2cccc(OCCN3CCN(c4ncc5c(n4)CN([C@H]4C(C)(C)[C@H](Oc6ccc(C#N)c(Cl)c6)C4(C)C)C5=O)CC3)c2F)c(-c2cn(C)c(=O)c3[nH]ccc23)c1 [Compound I-217], the pKi (androgen receptor) was > 7.30 and the pIC50 [2] was > 7.30.
CCS(=O)(=O)Nc1ccc(Oc2cccc(OCCOCCOCCOCCOCCN(C)c3ncc(C(=O)N[C@H]4C(C)(C)[C@H](Oc5ccc(C#N)c(Cl)c5)C4(C)C)cn3)c2)c(-c2cn(C)c(=O)c3[nH]ccc23)c1 [Compound I-3] was tested, and the pKi (androgen receptor) was > 7.30 and the GI50 [1] was 500 to 1500 nM.
In the case of CCS(=O)(=O)Nc1ccc(Oc2cccc(OCCOC3CCN(c4ccc(C(=O)N[C@H]5C(C)(C)[C@H](Oc6ccc(C#N)c(Cl)c6)C5(C)C)cn4)CC3)c2)c(-c2cn(C)c(=O)c3[nH]ccc23)c1 [Compound I-70, N-((1r, 3r)-3-(3-chloro-4-cyanophenoxy)-2,2,4,4-tetramethylcyclobutyl)-6-(4-(2-(3-(4-(ethylsulfonamido)-2-(6-methyl-7-oxo-6,7-dihydro-1H-pyrrolo[2,3-c]pyridin-4-yl)phenoxy)phenoxy)ethoxy)piperidin-1-yl)nicotinamide], the pKi (androgen receptor) was > 7.30 and the GI50 [1] was < 500 nM.
With Cn1cc(-c2cc(N)ccc2Oc2cccc(N3CC(N4CCN(c5ncc(C(=O)N[C@H]6C(C)(C)[C@H](Oc7ccc(C#N)c(Cl)c7)C6(C)C)cn5)CC4)C3)c2F)c2cc[nH]c2c1=O [Compound I-93] the pKi (androgen receptor) was > 7.30.
For Cn1cc(-c2ccccc2Oc2cccc(OCCOC3CCN(c4ncc(C(=O)N[C@H]5C(C)(C)[C@H](Oc6ccc(C#N)c(Cl)c6)C5(C)C)cn4)CC3)c2)c2cc[nH]c2c1=O [Compound I-61, N-((1r, 3r)-3-(3-chloro-4-cyanophenoxy)-2,2,4,4-tetramethylcyclobutyl)-2-(4-(2-(3-(2-(6-methyl-7-oxo-6,7-dihydro-1H-pyrrolo[2,3-c]pyridin-4-yl)phenoxy)phenoxy)ethoxy)piperidin-1-yl)pyrimidine-5-carboxamide], the pKi (androgen receptor) was > 7.30.
For CCS(=O)(=O)Nc1ccc(Oc2cccc(CCN3CC4CN(c5ncc(C(=O)N[C@H]6C(C)(C)[C@H](Oc7ccc(C#N)c(Cl)c7)C6(C)C)cn5)CC4C3)c2)c(-c2cn(C)c(=O)c3[nH]ccc23)c1 (some centres unmarked) [Compound I-119], the pKi (androgen receptor) was > 7.30.
